{
  "source": "patent US9212187B2",
  "about": "“Nitrogen-containing compounds and pharmaceutical compositions thereof for the treatment of atrial fibrillation” (OTSUKA PHARMACEUTICAL CO., LTD., priority 2009, dated 2015)",
  "note": "pIC50: −log10 of the molar value. Where a name gives a salt, the structure may show the parent alone.",
  "data": [
    {"molecular_target": "human Kv1.5 channels (Homo sapiens (Human), UniProt P22460)", "sequence (P22460 whole entry)": "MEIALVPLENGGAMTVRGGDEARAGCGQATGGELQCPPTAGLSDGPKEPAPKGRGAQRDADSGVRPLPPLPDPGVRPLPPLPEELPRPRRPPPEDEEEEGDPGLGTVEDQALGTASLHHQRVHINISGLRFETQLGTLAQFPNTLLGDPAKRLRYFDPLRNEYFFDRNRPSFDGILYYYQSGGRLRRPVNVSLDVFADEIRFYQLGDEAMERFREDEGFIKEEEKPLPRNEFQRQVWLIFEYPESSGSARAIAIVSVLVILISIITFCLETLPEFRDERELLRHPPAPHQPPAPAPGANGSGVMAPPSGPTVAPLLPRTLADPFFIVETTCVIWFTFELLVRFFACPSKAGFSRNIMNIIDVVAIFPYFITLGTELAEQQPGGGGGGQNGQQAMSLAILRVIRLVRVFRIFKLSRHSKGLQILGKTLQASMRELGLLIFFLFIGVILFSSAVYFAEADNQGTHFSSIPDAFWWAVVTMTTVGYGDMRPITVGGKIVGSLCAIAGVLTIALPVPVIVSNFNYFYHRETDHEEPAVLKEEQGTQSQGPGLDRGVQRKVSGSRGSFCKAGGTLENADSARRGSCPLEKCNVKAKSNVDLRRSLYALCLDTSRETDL", "assay": "Measurement of human Kv1.5 channel current by whole-cell patch clamp method (human Kv1.5-expressing CHO-K1 cell line), Pharmacological Test 1", "assay_type": "cell-based", "settings": "First Invention, Table 2, human Kv1.5-expressing CHO-K1 cells, step end current at +40 mV", "experimental": "Pharmacological Test 1 (1) Production of Human Kv1.5-Expressing CHO-K1 Cell Lines\nCHO-K1 cell lines stably expressing human Kv1.5 channels were prepared in the following manner.\nFull-length human Kv1.5 cDNA was cloned from a human heart cDNA library (produced by Stratagene). The obtained human Kv1.5 sequence corresponds to the sequence described in FASEB J. 5, 331-337 (1991).\nThe obtained human Kv1.5 cDNA was inserted into a plasmid encoding a CMV promoter and a G418 resistance marker to produce a Kv1.5 expression vector. The human Kv1.5 expression vector was transfected into CHO-K1 cells by the lipofectamine method. After culturing the cells in an F-12 medium (produced by Invitrogen Corp.) containing 10% FBS (produced by Invitrogen Corp.) for 3 or 4 days, the medium was replaced with a FBS-containing F-12 medium that included 1,000 μg/ml of G418 (produced by Invitrogen Corp.), and single colonies were isolated. The amount of Kv1.5 channel expression in the single colonies was quantified at the mRNA level by RT-PCR and then quantified at the protein level by western blotting. Finally, the expressed current was analyzed by patch clamp method. […]\nDepolarizing stimulation pulses were applied and ionic current was recorded by using a patch clamp amplifier (EPC-7 or EPC-7 PLUS, produced by HEKA) and a personal computer (manufactured by IBM Corp.) in which software for data acquisition and analysis of ion channel current (PULSE 8.77, produced by HEKA) was installed. The current was measured in the whole-cell configuration of the patch-clamp technique. […] Subsequently, the series resistance (Rs) between the pipette and the interior of the cell was measured and corrected. […]\nWhile the membrane potential was holded at −80 mV, depolarizing pulses (−80 mV for 0.05 seconds→□□+40 mV for 0.2 seconds →□□−40 mV for 0.2 seconds→□□−80 mV for 0.05 seconds) were applied at a stimulation frequency of 1 Hz to measure Kv1.5 channel current. […] The current obtained during the pulse application was recorded as a current in the absence of the test compounds. […]", "values": [
      {"smiles": "CCN1C(=O)C(C)(C)C(=O)N(C)c2cc(CN(CCn3ccc4oc(C)cc4c3=O)Cc3cccnc3COC)ccc21", "note": "[Example 317, 1-Ethyl-7-({N-(2-methoxymethylpyridin-3-ylmethyl)-N-[2-(2-methyl-4-oxo-4H-furo[3,2-c]pyridin-5-yl)ethyl]amino}methyl)-3,3,5-trimethyl-1,5-dihydrobenzo[b][1,4]diazepine-2,4-dione]", "pIC50": 6.20},
      {"smiles": "CCN1C(=O)C(C)(C)C(=O)N(C)c2cc(CN(CCn3cc(C)c4occc4c3=O)Cc3cccnc3COC)ccc21", "note": "[Example 318, 1-Ethyl-7-({N-(2-methoxymethylpyridin-3-ylmethyl)-N-[2-(7-methyl-4-oxo-4H-furo[3,2-c]pyridin-5-yl)ethyl]amino}methyl)-3,3,5-trimethyl-1,5-dihydrobenzo[b][1,4]diazepine-2,4-dione]", "pIC50": 5.54},
      {"smiles": "CCN1C(=O)C(C)(C)C(=O)N(C)c2cc(CN(CCc3cccnc3)C(=O)Cc3cn(C)c4ccccc34)ccc21", "note": "[Example 330, N-(1-Ethyl-3,3,5-trimethyl-2,4-dioxo-2,3,4,5-tetrahydro-1H-benzo[b][1,4]diazepin-7-ylmethyl)-2-(1-methyl-1H-indol-3-yl)-N-(2-pyridin-3-ylethyl)acetamide hydrochloride]", "pIC50": 6.07}
    ]}
  ]
}
